In patent publication US6277886A (priority 1996, dated 2001):
Several values for one entry are separate records, joined by “and”; a condition that tells them apart may be missing. Equal entries are not always repeated. Where two headings read alike, the source gives them in different places.

Tested on: anesthetized cat
Conditions: for Change in MABP / Change in PR: 45-60 min
Procedure: Cats were anesthetized with i.v. nembutal 25 mg/kg. Anesthesia was maintained by additional injections of nembutal, 5 mg/kg, as needed. The femoral artery was cannulated and connected to a Statham pressure transducer for blood pressure recordings on a Grass multichannel Polygraph. The femoral vein was cannulated for i.v. injection of drugs.

C#CCN[C@H]1CCc2ccccc21 [S(-)PAI, S-(-)-N-propargyl-1-aminoindan]
Change in MABP (dose 0.03, i.v.): 7 mmHg and 5 mmHg | Change in MABP (dose 0.1, i.v.): -12 mmHg | Change in PR (dose 0.1, i.v.): 0 beats/min | Change in MABP (dose 1.0, i.v.): 2 mmHg | Change in PR (dose 1.0, i.v.): -5 beats/min | mean arterial blood pressure (MABP) and heart rate (HR) (i.v., up to cumulative dose of 1 mg/kg, 45-60 minutes, in words): neither mean arterial blood pressure (MABP) nor heart rate (HR) were affected
